Experimental data: the NIST ThermoML archive (doi:10.1016/j.jct.2012.08.004)
Several values for one entry are separate records, joined by “and”; a condition that tells them apart may be missing. Equal values may be shown once.

Settings: Crystal, Calculated from knudsen effusion weight loss

O=c1cc[nH]c(=S)[nH]1 [2-thiouracil]
Settings	vapor or sublimation pressure
421.15 K	0.0001325 kPa and 0.000123 kPa and 0.0001236 kPa
423.21 K	0.0001553 kPa and 0.0001548 kPa and 0.0001474 kPa
425.22 K	0.0001891 kPa and 0.000178 kPa and 0.0001835 kPa
427.15 K	0.0002128 kPa and 0.0002092 kPa and 0.0002223 kPa
429.2 K	0.0002611 kPa and 0.0002488 kPa and 0.0002569 kPa
431.23 K	0.0003061 kPa and 0.0002978 kPa and 0.0003042 kPa
433.16 K	0.0003652 kPa and 0.0003584 kPa and 0.0003803 kPa
435.2 K	0.0004422 kPa and 0.0004176 kPa and 0.0004406 kPa
437.24 K	0.0005206 kPa and 0.0005016 kPa and 0.0005328 kPa
439.16 K	0.0005912 kPa and 0.0005684 kPa and 0.0006221 kPa
441.22 K	0.000693 kPa and 0.000706 kPa and 0.0006718 kPa
443.26 K	0.000834 kPa and 0.0008404 kPa and 0.0008041 kPa

Cc1c[nH]c(=S)[nH]c1=O [5-methyl-2-thiouracil]
Settings	vapor or sublimation pressure
413.15 K	0.0001771 kPa and 0.0001698 kPa
415.25 K	0.0002113 kPa and 0.000217 kPa and 0.0002102 kPa
417.15 K	0.0002538 kPa and 0.0002498 kPa
417.24 K	0.0002506 kPa
419.23 K	0.0003129 kPa and 0.0003018 kPa and 0.0003131 kPa
421.24 K	0.0003606 kPa and 0.0003744 kPa
423.16 K	0.0004363 kPa and 0.0004213 kPa and 0.0004419 kPa
425.2 K	0.0005302 kPa and 0.000505 kPa and 0.0005103 kPa
427.22 K	0.0006121 kPa and 0.000601 kPa and 0.0006259 kPa
429.15 K	0.0007317 kPa and 0.0007071 kPa and 0.0007522 kPa
431.22 K	0.0008692 kPa and 0.0008414 kPa and 0.000852 kPa
433.24 K	0.001032 kPa and 0.001018 kPa and 0.001053 kPa

Cc1cc(=O)[nH]c(=S)[nH]1 [6-methyl-2-thiouracil]
Settings	vapor or sublimation pressure
421.16 K	0.000106 kPa and 9.78e-05 kPa
423.15 K	0.0001239 kPa and 0.0001238 kPa and 0.0001199 kPa
425.17 K	0.000145 kPa and 0.000136 kPa and 0.0001411 kPa
427.16 K	0.0001623 kPa and 0.0001711 kPa and 0.0001818 kPa
429.17 K	0.0002135 kPa and 0.0002 kPa and 0.0002154 kPa
431.16 K	0.0002301 kPa and 0.0002471 kPa
431.19 K	0.0002525 kPa and 0.0002434 kPa and 0.0002473 kPa
433.2 K	0.0002894 kPa and 0.0002713 kPa and 0.0002913 kPa
435.22 K	0.0003418 kPa and 0.0003333 kPa and 0.0003423 kPa
437.17 K	0.0004046 kPa [middle of 5 runs]
439.2 K	0.0005278 kPa and 0.0004968 kPa and 0.0004799 kPa
439.22 K	0.0004689 kPa and 0.000478 kPa and 0.0004523 kPa
441.23 K	0.0005644 kPa [middle of 5 runs]
443.16 K	0.0006925 kPa and 0.0006452 kPa
443.17 K	0.0006889 kPa and 0.0006567 kPa
445.2 K	0.0007983 kPa and 0.0007787 kPa
445.21 K	0.000813 kPa and 0.0008056 kPa and 0.0007574 kPa
447.24 K	0.0009485 kPa [middle of 6 runs]
